{"source": "ChEMBL document CHEMBL1144589", "about": "“Pharmacophoric features of Pseudomonas aeruginosa deacetylase LpxC inhibitors: an electronic and structural analysis” (Bioorg Med Chem Lett, 2007)", "molecular_target": "T1, UDP-3-O-acyl-N-acetylglucosamine deacetylase (Pseudomonas aeruginosa (strain ATCC 15692 / PAO1 / 1C / PRS 101 / LMG12228)) (UniProt P47205)", "T1 sequence (whole entry)": "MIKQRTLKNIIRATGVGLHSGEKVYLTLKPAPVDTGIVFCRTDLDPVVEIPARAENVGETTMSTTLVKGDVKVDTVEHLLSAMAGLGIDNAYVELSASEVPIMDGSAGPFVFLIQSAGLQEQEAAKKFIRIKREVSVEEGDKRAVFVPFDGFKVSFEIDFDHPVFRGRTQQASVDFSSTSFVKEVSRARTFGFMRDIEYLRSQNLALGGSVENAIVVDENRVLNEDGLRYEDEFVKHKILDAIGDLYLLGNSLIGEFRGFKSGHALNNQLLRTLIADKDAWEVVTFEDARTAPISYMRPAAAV", "assay": "Inhibition at Pseudomonas aeruginosa deacetylase LpxC receptor", "note": "Active and inactive are the calls of the source. The rule behind the calls is not given here."}
{"smiles": "O=C(NO)C1COC(c2cccc(C(F)(F)F)c2)=N1", "note": "(stereo unspecified)", "values": [{"measurement": "Activity", "result": "Active"}]}
